Experimental data as given in PubChem BioAssay (NCI).
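48-hour exposure; five concentrations; linearly interpolated endpoints. The concentration for 50% growth inhibition is given as GI50. The concentration for full growth arrest is given as TGI.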

Experiments:
Assay in all cases: growth of human tumour cells (NCI), 48 h
OVCAR-8 ovarian = tested on: OVCAR-8 ovarian
SW-620 colon = tested on: SW-620 colon
MCF7 breast = tested on: MCF7 breast
SK-MEL-28 melanoma = tested on: SK-MEL-28 melanoma
UACC-257 melanoma = tested on: UACC-257 melanoma
UACC-62 melanoma = tested on: UACC-62 melanoma
LOX IMVI melanoma = tested on: LOX IMVI melanoma
SR leukemia = tested on: SR leukemia
SNB-19 CNS = tested on: SNB-19 CNS
HOP-62 NSCLC = tested on: HOP-62 NSCLC
K-562 leukemia = tested on: K-562 leukemia
TK-10 renal = tested on: TK-10 renal
HCC-2998 colon = tested on: HCC-2998 colon
M14 melanoma = tested on: M14 melanoma
PC-3 prostate = tested on: PC-3 prostate
UO-31 renal = tested on: UO-31 renal
NCI/ADR-RES ovarian = tested on: NCI/ADR-RES ovarian
HT29 colon = tested on: HT29 colon
ACHN renal = tested on: ACHN renal
OVCAR-5 ovarian = tested on: OVCAR-5 ovarian
SNB-75 CNS = tested on: SNB-75 CNS
A549 NSCLC = tested on: A549 NSCLC
NCI-H522 lung = tested on: NCI-H522 lung
786-0 renal = tested on: 786-0 renal
SK-OV-3 ovarian = tested on: SK-OV-3 ovarian
SF-295 CNS = tested on: SF-295 CNS
BT-549 breast = tested on: BT-549 breast
IGROV1 ovarian = tested on: IGROV1 ovarian
U251 CNS = tested on: U251 CNS
HCT-15 colon = tested on: HCT-15 colon
SK-MEL-5 melanoma = tested on: SK-MEL-5 melanoma
T-47D breast = tested on: T-47D breast
COLO 205 colon = tested on: COLO 205 colon
MOLT-4 leukemia = tested on: MOLT-4 leukemia
MDA-MB-231 breast = tested on: MDA-MB-231 breast
NCI-H226 lung = tested on: NCI-H226 lung
HS 578T breast = tested on: HS 578T breast
CAKI-1 renal = tested on: CAKI-1 renal
MALME-3M melanoma = tested on: MALME-3M melanoma
SF-268 CNS = tested on: SF-268 CNS
RXF 393 renal = tested on: RXF 393 renal
HCT-116 colon = tested on: HCT-116 colon
KM12 colon = tested on: KM12 colon
SF-539 CNS = tested on: SF-539 CNS
MDA-MB-435 = tested on: MDA-MB-435
SN12C renal = tested on: SN12C renal
OVCAR-4 ovarian = tested on: OVCAR-4 ovarian
NCI-H460 lung = tested on: NCI-H460 lung
SK-MEL-2 melanoma = tested on: SK-MEL-2 melanoma
HOP-92 NSCLC = tested on: HOP-92 NSCLC
EKVX NSCLC = tested on: EKVX NSCLC
RPMI-8226 leukemia = tested on: RPMI-8226 leukemia
CCRF-CEM leukemia = tested on: CCRF-CEM leukemia
HL-60(TB) leukemia = tested on: HL-60(TB) leukemia

## COc1ccc(-c2cc(-c3cccc4ccccc34)n3c(n2)nc2ccccc23)cc1OC
OVCAR-8 ovarian
  GI50: 1.06 µM
  TGI: > 100 µM
SW-620 colon
  GI50: 0.78 µM
  TGI: > 100 µM
MCF7 breast
  GI50: 0.509 µM
  TGI: > 100 µM
SK-MEL-28 melanoma
  GI50: 2.88 µM
  TGI: > 100 µM
UACC-257 melanoma
  GI50: 2.14 µM
  TGI: 40.3 µM
UACC-62 melanoma
  GI50: 1.03 µM
  TGI: 7.2 µM
LOX IMVI melanoma
  GI50: 0.975 µM
  TGI: 6.65 µM
SR leukemia
  GI50: 0.362 µM
  TGI: > 100 µM
SNB-19 CNS
  GI50: 2.59 µM
  TGI: > 100 µM
HOP-62 NSCLC
  GI50: 0.65 µM
  TGI: 4.51 µM
K-562 leukemia
  GI50: 1.32 µM
  TGI: > 100 µM
TK-10 renal
  GI50: 2.47 µM
  TGI: > 100 µM
HCC-2998 colon
  GI50: 1.62 µM
  TGI: 4.72 µM
M14 melanoma
  GI50: 2.08 µM
  TGI: > 100 µM
PC-3 prostate
  GI50: 2.5 µM
  TGI: > 100 µM
UO-31 renal
  GI50: 0.675 µM
  TGI: > 100 µM
NCI/ADR-RES ovarian
  GI50: 2.07 µM
  TGI: > 100 µM
HT29 colon
  GI50: 1.91 µM
  TGI: 28.2 µM
ACHN renal
  GI50: 0.461 µM
  TGI: 3.35 µM
OVCAR-5 ovarian
  GI50: 3.03 µM
  TGI: > 100 µM
SNB-75 CNS
  GI50: 0.867 µM
  TGI: 4.6 µM
A549 NSCLC
  GI50: 0.58 µM
  TGI: 15.2 µM
NCI-H522 lung
  GI50: 2.75 µM
  TGI: > 100 µM
786-0 renal
  GI50: 1.57 µM
  TGI: > 100 µM
SK-OV-3 ovarian
  GI50: 2.55 µM
  TGI: 44.9 µM
SF-295 CNS
  GI50: 0.582 µM
  TGI: 5.33 µM
BT-549 breast
  GI50: 2.27 µM
  TGI: 6.09 µM
IGROV1 ovarian
  GI50: 1.48 µM
  TGI: > 100 µM
U251 CNS
  GI50: 1.16 µM
  TGI: > 100 µM
HCT-15 colon
  GI50: 0.926 µM
  TGI: > 100 µM
SK-MEL-5 melanoma
  GI50: 0.96 µM
  TGI: 2.84 µM
T-47D breast
  GI50: 1.73 µM
  TGI: 9.24 µM
COLO 205 colon
  GI50: 0.626 µM
  TGI: > 100 µM
MOLT-4 leukemia
  GI50: 0.354 µM
  TGI: > 100 µM
MDA-MB-231 breast
  GI50: 1.52 µM
  TGI: > 100 µM
NCI-H226 lung
  GI50: 1.16 µM
  TGI: 6.7 µM
HS 578T breast
  GI50: 1.42 µM
  TGI: > 100 µM
CAKI-1 renal
  GI50: 0.559 µM
  TGI: > 100 µM
MALME-3M melanoma
  GI50: 0.882 µM
  TGI: 16.7 µM
SF-268 CNS
  GI50: 1.95 µM
  TGI: > 100 µM
RXF 393 renal
  GI50: 2.75 µM
  TGI: > 100 µM
HCT-116 colon
  GI50: 1.66 µM
  TGI: 49 µM
KM12 colon
  GI50: 9.43 µM
  TGI: > 100 µM
SF-539 CNS
  GI50: 1.02 µM
  TGI: 7.67 µM
MDA-MB-435
  GI50: 2.72 µM
  TGI: > 100 µM
SN12C renal
  GI50: 1.33 µM
  TGI: > 100 µM
OVCAR-4 ovarian
  GI50: 4.77 µM
  TGI: > 100 µM
NCI-H460 lung
  GI50: 0.357 µM
  TGI: 1.75 µM
SK-MEL-2 melanoma
  GI50: 2.57 µM
  TGI: 7.47 µM
HOP-92 NSCLC
  GI50: 1.65 µM
  TGI: 7.99 µM
EKVX NSCLC
  GI50: 2.79 µM
  TGI: > 100 µM
RPMI-8226 leukemia
  GI50: 1.34 µM
  TGI: 4.29 µM
CCRF-CEM leukemia
  GI50: 0.556 µM
  TGI: > 100 µM
HL-60(TB) leukemia
  GI50: 0.419 µM
  TGI: 3.29 µM
